Test results published in patent US12617864B2, “Methods of activating and proliferating exhausted CD8 T cells, CD8 T cells with enhanced activity prepared by the same, and uses thereof” (Medgene Therapeutics, Inc., priority 2021, dated 2026).

Legend:
Klf4 gene = Klf4 gene expression in CD8 T cells treated with APTO-253; format: cell-based, mice; conditions: 3 μM APTO-253 for 3 days (72 hours) during activation; compared to PBS-treated CD8 T cells
Method: (§1) Accordingly, in the same manner as above, after separating naïve CD8 T cells, naïve CD8 T cells were seeded on a plate coated with anti-CD3 antibody and in the process of activation, anti-CD28 antibody (2 μg/ml) and mIL-2 (100 U/ml) was treated with 3 μM of APTO-253 (MedChemExpress, LLC). Then, it was cultured for 72 hours in a 37° C. 5% CO2 cell incubator. After completion of the culture, the cells were transferred to a 15 ml centrifuge tube, and the volume was adjusted to 3 ml by adding RPMI medium. After that, 3 ml of Histopaque (Sigma) was carefully placed in the lower layer. Then, centrifugation was carried out for 30 minutes at 25° C. at 2,000 rpm, and at this time, acceleration and deceleration were set to a minimum. After centrifugation, the culture solution of the upper layer was removed, and the cells present at the interface were recovered, transferred to a 15 ml centrifuge tube, resuspended in 10 ml of PBS, and centrifuged for 5 minutes at 4° C. and 1,500 rpm. After centrifugation, the supernatant was removed, the cell pellet was washed once more with 10 mL of PBS and centrifuged for 5 minutes at 4° C. and 1,500 rpm. After centrifugation, the supernatant was removed, the cell pellet was resuspended in an appropriate amount of PBS, and the cells were counted. […]

MC38 cancer cells = experiment: Mouse tumor model: MC38 in Rag2 KO mice given CD8 T cells treated with APTO-253; conditions: 5×10^5 CD8 T cells treated ex vivo with APTO-253 for 3 days, i.v. the day after 3×10^5 MC38; until day 15; vs PBS-treated CD8 T cells
Method: as §1

[1] = system: CD8 T cells from OT-I transgenic mice; experiment: In vitro exhaustion experiment: repeated OVA peptide stimulation of CD8 T cells, gene expression by qRT-PCR; format: cell-based; conditions: repeated stimulation+IL-21 treatment group, OVA peptide 10 ng/ml for 5 days
Method: To this end, the present inventors specifically isolated CD8 T cells from OT-I transgenic mice having OVA (ovalbumin)-peptide-specific T cell receptor (TCR) and repeatedly treated the OVA peptide for 5 days. All experimental sets were treated with IL-15 (5 ng/ml) and IL-7 (5 ng/ml) to increase the viability of CD8 T cells. After treatment with OVA peptide (10 ng/ml) and washing the next day, stimulation was repeatedly applied for 5 days in such a way that cytokines and OVA peptide were treated with the same composition again (repeated stimulation treatment group). At this time, as a control group, only a cytokine-treated group without OVA peptide treatment and a single stimulation treatment group in which OVA peptide (10 ng/ml) was treated for 2 days and washed, and then only cytokine was treated for 3 days were added. In addition, a set treated with IL-21, which is known to help activate CD8 T cells, was also added (repetitive stimulation+IL-21 treated group) (FIG. 1A). After 5 days, live CD8 T cells were isolated using a cell sorter, RNA was extracted, reverse transcribed into cDNA, and the expression levels of various genes were confirmed by qRT-PCR. […]

Compound | Klf4 gene expression level in CD8 T cells (Klf4 gene) | tumor growth (tumor volume) (MC38 cancer cells) | expression of the Klf4 gene [1] | expression of the Tox gene ([1]; compared with repeated stimulation group)
Cc1[nH]c2ccc(F)cc2c1-c1nc2c3cccnc3c3ncccc3c2[nH]1 [APTO-253, 2-(5-fluoro-2-methyl-1H-indol-3-yl)-1H-imidazo[4,5-f][1,10]phenanthroline] | increased Klf4 gene expression level | decreased tumor growth | – | –
IL-21: cytokine known to help activate CD8 T cells | – | – | significantly increased | decreased
